Data taken from patent US20240316022A1 (TYRA BIOSCIENCES, INC., priority 2021, published 2024).

Legend:
[1] = target: T1, FGFR3 (Homo sapiens, UniProt P22607); test: Kinase binding assay (kinase-tagged T7 phage, qPCR), Kd; conditions: read-out: FGFR3 (Kd nM)
T1 construct: made in house; host or cells: E. coli derived from BL21, infected with T7 phage

[2] = target: T2, FGFR4 (Homo sapiens, UniProt P22455); test: as above; conditions: read-out: FGFR4 (Kd nM)
T2 construct: made in house; host or cells: E. coli derived from BL21, infected with T7 phage

[3] = target: T3, FGFR1 (Homo sapiens, UniProt P11362); test: as above; conditions: read-out: FGFR1 (Kd nM)
T3 construct: made in house; host or cells: E. coli derived from BL21, infected with T7 phage

[4] = target: T4, FGFR2 (Homo sapiens, UniProt P21802); test: as above; conditions: read-out: FGFR2 (Kd nM)
T4 construct: made in house; host or cells: E. coli derived from BL21, infected with T7 phage

[5] = target: T5, BCR-FGFR4 Ba/F3 (Homo sapiens, UniProt P22455); test: Ba/F3 cell viability assay (CellTiter-Glo 2.0); assay type: cell-based; conditions: Ba/F3 BCR-FGFR4 cells, 48 hours
T5 construct: host or cells: Ba/F3; the other entry of the earlier key: BCR (P11274, Breakpoint cluster region protein)
From the text: (§1) Experimental Purpose: Recombinant kinase fusions are transduced into parental Ba/F3, which becomes dependent upon this constitutive kinase activity for IL3-independent survival. Inhibition of kinase activity leads to cell death, which is monitored using CellTiter-Glo® 2.0 (Promega) which measures intracellular ATP concentration that in turn serves as a marker for viability. BCR-FGFR4 Ba/F3, BCR-FGFR1 Ba/F3 and FGFR3-BAIAP2L1 Ba/F3 were obtained from Advanced Cellular Dynamics (Seattle, WA)
(§2) Cell Viability Assay Procedure: Cell Titer-Glo® 2.0 Luminescent cell viability assay reagent was purchased from Promega (Madison, WI). BCR-FGFR4 Ba/F3, BCR-FGFR1 Ba/F3 and FGFR3-BAIAP2L1 Ba/F3 cells were cultured in RPMI1640 media supplemented with 10% fetal bovine serum. Cultures were maintained at 37° C. in a humidified atmosphere of 5% CO2 and 95% air.
(§3) Cells were plated in 96-well clear bottom/white plates (Corning #3903) at 10,000 cells/well in 100 μl of media, incubated overnight. The next day, test compound DMSO stock solutions were made at 10 mM and 2 μM final concentration. Compounds were then added to cells in a 9-dose, 10-fold dilution series starting at 30 μM with an HP 300e Digital Dispenser (each dose was applied in triplicate). DMSO was backfilled to each well up to 301 nL total volume of test compound+DMSO, and a total of 301 nL DMSO was added to a control/no test compound well in triplicate. The cells in cell culture plates were incubated with the compounds at 37° C. and 5% CO2 for 48 hours. Then 50 μl of Cell Titer Glo 2.0 reagent was added to each well of the cell culture plates. The contents were covered from light and mixed on an orbital shaker at room temperature for 10 min. Luminescence was recorded by a Synergy H1 Microplate Reader (Biotek, Winooski, VT). Cells were assessed as a percentage of DMSO only treated control cells. Curves were plotted and IC50 values were calculated using the GraphPad Prism 8 program based on a sigmoidal dose-response equation (4 parameter).

[6] = target: T6, FGFR3-BAIAP2L1 Ba/F3 (Homo sapiens, UniProt P22607); test: Ba/F3 cell viability assay (CellTiter-Glo 2.0); assay type: cell-based; conditions: Ba/F3 FGFR3-BAIAP2L1 cells, 48 hours
T6 construct: host or cells: Ba/F3; the other entry of the earlier key: BAIAP2L1 (Q9UHR4, BAR/IMD domain-containing adapter protein 2-like 1)
From the text: as §1, §2, §3

[7] = target: T7, BCR-FGFR1 Ba/F3 (Homo sapiens, UniProt P11362); test: Ba/F3 cell viability assay (CellTiter-Glo 2.0); assay type: cell-based; conditions: Ba/F3 BCR-FGFR1 cells, 48 hours
T7 construct: host or cells: Ba/F3; the other entry of the earlier key: BCR (P11274, Breakpoint cluster region protein)
From the text: as §1, §2, §3

T6 sequence (P22607 397-758 limits assumed): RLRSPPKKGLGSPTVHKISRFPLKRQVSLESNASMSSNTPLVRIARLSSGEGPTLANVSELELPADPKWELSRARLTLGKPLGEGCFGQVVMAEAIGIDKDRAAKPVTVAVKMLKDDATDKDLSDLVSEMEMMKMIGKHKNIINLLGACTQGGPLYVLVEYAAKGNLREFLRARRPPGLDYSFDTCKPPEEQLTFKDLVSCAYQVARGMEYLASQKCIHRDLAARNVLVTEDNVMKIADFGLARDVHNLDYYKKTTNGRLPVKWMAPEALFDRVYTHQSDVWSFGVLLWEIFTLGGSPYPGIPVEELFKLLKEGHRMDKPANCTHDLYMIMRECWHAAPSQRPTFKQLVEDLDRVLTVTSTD
T3 sequence (P11362 22-822): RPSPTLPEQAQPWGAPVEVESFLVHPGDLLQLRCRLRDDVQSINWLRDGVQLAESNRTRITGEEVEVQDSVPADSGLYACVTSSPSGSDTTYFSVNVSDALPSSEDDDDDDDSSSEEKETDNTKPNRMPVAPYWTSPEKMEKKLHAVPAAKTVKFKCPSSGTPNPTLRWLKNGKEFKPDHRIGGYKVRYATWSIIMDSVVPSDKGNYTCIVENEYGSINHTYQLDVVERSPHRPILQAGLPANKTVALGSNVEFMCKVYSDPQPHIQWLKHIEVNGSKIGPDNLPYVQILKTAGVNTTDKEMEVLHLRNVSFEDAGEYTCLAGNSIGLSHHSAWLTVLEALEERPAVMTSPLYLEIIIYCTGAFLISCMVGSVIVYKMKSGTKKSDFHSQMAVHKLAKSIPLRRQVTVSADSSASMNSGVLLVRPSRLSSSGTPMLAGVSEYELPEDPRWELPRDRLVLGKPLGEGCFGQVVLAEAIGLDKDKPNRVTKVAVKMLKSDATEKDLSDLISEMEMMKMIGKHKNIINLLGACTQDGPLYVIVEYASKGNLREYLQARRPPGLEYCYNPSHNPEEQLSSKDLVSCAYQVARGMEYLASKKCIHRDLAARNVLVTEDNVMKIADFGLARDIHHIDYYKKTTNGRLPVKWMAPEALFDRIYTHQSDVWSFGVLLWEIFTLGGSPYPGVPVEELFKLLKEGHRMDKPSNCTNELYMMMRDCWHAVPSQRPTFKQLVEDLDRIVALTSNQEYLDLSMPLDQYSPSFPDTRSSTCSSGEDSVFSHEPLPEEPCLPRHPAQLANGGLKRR
T7 sequence (P11362 478-767 limits assumed): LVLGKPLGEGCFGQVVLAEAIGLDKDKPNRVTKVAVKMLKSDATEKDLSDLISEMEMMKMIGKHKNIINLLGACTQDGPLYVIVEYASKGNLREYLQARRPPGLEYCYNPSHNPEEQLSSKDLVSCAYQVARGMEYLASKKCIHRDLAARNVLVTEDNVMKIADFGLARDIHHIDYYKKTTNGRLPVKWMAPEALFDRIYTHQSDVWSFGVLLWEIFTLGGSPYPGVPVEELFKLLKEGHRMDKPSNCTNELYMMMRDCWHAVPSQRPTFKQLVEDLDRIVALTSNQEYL
T4 sequence (P21802 22-821): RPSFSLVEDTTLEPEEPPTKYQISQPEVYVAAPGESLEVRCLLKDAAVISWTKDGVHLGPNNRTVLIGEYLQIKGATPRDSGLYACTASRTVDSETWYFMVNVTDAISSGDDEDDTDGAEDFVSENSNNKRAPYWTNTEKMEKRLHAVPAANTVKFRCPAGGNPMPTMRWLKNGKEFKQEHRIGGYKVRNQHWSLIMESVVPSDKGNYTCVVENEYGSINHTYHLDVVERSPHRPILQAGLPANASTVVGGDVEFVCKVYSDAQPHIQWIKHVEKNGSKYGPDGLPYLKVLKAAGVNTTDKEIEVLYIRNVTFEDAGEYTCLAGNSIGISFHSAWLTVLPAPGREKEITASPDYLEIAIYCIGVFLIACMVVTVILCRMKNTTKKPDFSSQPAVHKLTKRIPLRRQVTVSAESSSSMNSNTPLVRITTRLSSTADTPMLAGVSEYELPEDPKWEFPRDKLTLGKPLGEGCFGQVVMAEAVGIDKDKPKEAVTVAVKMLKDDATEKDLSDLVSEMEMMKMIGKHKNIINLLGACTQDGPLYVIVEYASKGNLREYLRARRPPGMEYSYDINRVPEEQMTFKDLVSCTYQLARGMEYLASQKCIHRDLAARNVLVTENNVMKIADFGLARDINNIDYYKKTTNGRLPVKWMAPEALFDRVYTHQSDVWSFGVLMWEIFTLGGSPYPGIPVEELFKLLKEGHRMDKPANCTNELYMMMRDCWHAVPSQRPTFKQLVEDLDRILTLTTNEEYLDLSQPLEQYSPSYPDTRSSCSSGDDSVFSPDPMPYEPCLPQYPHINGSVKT
T2 sequence (P22455 22-802): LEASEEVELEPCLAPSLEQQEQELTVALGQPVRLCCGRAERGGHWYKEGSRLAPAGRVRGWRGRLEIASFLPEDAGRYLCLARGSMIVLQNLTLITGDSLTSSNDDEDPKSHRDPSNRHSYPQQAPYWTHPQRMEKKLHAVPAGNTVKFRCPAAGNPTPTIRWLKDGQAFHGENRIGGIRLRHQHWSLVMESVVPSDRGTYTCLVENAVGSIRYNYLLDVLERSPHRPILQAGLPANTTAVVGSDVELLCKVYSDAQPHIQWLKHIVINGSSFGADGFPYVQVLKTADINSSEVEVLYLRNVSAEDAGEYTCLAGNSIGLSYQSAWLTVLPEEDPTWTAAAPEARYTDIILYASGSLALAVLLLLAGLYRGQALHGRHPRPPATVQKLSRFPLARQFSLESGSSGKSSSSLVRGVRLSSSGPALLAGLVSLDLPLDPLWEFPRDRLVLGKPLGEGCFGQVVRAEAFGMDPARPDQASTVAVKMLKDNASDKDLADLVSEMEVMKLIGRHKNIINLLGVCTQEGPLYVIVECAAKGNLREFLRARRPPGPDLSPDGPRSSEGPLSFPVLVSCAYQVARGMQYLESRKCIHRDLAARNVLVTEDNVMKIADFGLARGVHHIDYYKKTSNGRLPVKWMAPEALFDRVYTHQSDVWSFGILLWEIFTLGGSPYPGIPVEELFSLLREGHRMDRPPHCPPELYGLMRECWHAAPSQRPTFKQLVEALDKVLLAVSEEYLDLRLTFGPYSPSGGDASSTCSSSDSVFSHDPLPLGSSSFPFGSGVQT
T1 sequence (P22607 23-806): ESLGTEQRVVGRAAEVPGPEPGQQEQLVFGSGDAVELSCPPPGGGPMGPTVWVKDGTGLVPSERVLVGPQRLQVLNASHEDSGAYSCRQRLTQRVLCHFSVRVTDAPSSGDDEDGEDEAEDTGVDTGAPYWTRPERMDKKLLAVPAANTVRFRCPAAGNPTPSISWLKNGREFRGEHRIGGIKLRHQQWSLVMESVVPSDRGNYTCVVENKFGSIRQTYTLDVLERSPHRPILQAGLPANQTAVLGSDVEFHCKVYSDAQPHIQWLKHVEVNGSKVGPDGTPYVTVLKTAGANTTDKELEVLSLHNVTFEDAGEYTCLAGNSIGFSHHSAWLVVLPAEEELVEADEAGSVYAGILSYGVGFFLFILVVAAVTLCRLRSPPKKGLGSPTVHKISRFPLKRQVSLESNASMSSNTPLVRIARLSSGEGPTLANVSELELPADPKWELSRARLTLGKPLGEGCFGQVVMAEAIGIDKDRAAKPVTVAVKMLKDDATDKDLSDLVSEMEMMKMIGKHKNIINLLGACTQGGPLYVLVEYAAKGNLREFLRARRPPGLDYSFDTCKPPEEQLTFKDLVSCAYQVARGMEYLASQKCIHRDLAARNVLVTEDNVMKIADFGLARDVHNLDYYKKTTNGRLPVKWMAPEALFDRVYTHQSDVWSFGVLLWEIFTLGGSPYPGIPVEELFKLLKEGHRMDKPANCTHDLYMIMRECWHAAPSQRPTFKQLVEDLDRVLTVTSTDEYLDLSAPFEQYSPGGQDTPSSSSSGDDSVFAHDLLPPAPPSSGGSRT
T5 sequence (P22455 467-755 limits assumed): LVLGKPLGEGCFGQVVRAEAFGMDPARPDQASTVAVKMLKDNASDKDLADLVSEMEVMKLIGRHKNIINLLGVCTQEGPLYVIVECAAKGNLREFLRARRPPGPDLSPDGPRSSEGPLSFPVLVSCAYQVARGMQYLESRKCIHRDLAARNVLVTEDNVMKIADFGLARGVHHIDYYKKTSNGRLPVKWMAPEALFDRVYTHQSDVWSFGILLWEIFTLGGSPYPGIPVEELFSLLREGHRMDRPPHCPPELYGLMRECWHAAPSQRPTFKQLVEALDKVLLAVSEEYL

Kd [1] [nM] | Kd [2] [nM] | Kd [3] [nM] | Kd [4] [nM] | SMILES | IC50 [5] [nM] | IC50 [6] [nM] | IC50 [7] [nM]
0.1 to 100 | 0.1 to 100 | 250 to 1000 | > 1000 | COc1cc(NC(=O)c2ccccn2)cc(-c2n[nH]c3ccc(O[C@H](C)c4c(Cl)cncc4Cl)cc23)c1 [Example 45, N-[3-[5-[(1R)-1-(3,5-dichloro-4-pyridyl)ethoxy]-1H-indazol-3-yl]-5-methoxy-phenyl]pyridine-2-carboxamide] | 250 to 1000 | – | –
0.1 to 100 | 0.1 to 100 | 0.1 to 100 | 0.1 to 100 | Cc1ncc(Cl)c([C@@H](C)Oc2ccc3[nH]nc(-c4ccc(N[C@@H]5CCOC5)nc4)c3c2)c1Cl [Example 155, 5-(5-((R)-1-(3,5-Dichloro-2-methylpyridin-4-yl)ethoxy)-1H-indazol-3-yl)-N-((R)-tetrahydrofuran-3-yl)pyridin-2-amine] | – | 0.1 to 100 | 100 to 250
0.1 to 100 | 0.1 to 100 | 0.1 to 100 | 0.1 to 100 | CCN1CCC(Oc2ncc(-c3n[nH]c4ccc(O[C@H](C)c5c(Cl)cncc5Cl)cc34)cc2C#N)CC1 [Example 119] | – | 0.1 to 100 | 250 to 1000
0.1 to 100 | 0.1 to 100 | 250 to 1000 | 250 to 1000 | Cc1cc(-c2n[nH]c3ccc(O[C@H](C)c4c(Cl)cnc(C)c4Cl)cc23)cnc1O[C@@H]1CCOC1 [Example 148, 5-((R)-1-(3,5-Dichloro-2-methylpyridin-4-yl)ethoxy)-3-(5-methyl-6-(((R)-tetrahydrofuran-3-yl)oxy)pyridin-3-yl)-1H-indazole] | – | 100 to 250 | 250 to 1000
0.1 to 100 | 0.1 to 100 | 0.1 to 100 | 100 to 250 | Cc1cc(-c2n[nH]c3ccc(O[C@H](C)c4c(Cl)cncc4Cl)cc23)cnc1N[C@@H]1CCOC1 [Example 158, 5-(5-((R)-1-(3,5-dichloropyridin-4-yl)ethoxy)-1H-indazol-3-yl)-3-methyl-N-((R)-tetrahydrofuran-3-yl)pyridin-2-amine] | – | 0.1 to 100 | 250 to 1000
0.1 to 100 | 0.1 to 100 | 0.1 to 100 | 0.1 to 100 | CCN1CCC2(CCc3cc(-c4n[nH]c5ccc(O[C@H](C)c6c(C)cnnc6C)cc45)ccc3O2)CC1 [Example 111, (R)-6-(5-(1-(3,5-dimethylpyridazin-4-yl)ethoxy)-1H-indazol-3-yl)-1′-ethylspiro[chroman-2,4′-piperidine]] | – | 0.1 to 100 | 0.1 to 100
0.1 to 100 | 0.1 to 100 | 0.1 to 100 | 0.1 to 100 | CNC(=O)c1ccc(-c2n[nH]c3ccc(O[C@H](C)c4c(Cl)cncc4Cl)cc23)cn1 [Example 9, (R)-5-(5-(1-(3,5-Dichloropyridin-4-yl)ethoxy)-1H-indazol-3-yl)-N-methylpicolinamide] | – | 0.1 to 100 | 100 to 250
0.1 to 100 | 0.1 to 100 | 0.1 to 100 | 0.1 to 100 | C[C@@H](Oc1ccc2[nH]nc(-c3ccc(OC4C5CN(S(C)(=O)=O)CC54)nc3)c2c1)c1c(Cl)cncc1Cl (stereo partly drawn) [Example 162, 5-((R)-1-(3,5-dichloropyridin-4-yl)ethoxy)-3-(6-((3-(methylsulfonyl)-3-azabicyclo[3.1.0]hexan-6-yl)oxy)pyridin-3-yl)-1H-indazole] | – | 0.1 to 100 | 100 to 250
0.1 to 100 | 0.1 to 100 | 0.1 to 100 | 0.1 to 100 | C[C@@H](Oc1ccc2[nH]nc(-c3ccc(OC4CC5(C4)CN(S(C)(=O)=O)C5)nc3)c2c1)c1c(Cl)cncc1Cl [Example 152, (R)-5-(1-(3,5-dichloropyridin-4-yl)ethoxy)-3-(6-((2-(methylsulfonyl)-2-azaspiro[3.3]heptan-6-yl)oxy)pyridin-3-yl)-1H-indazole] | – | 0.1 to 100 | 100 to 250
